According to patent US20100234815A1, “STABLE MELT PROCESSABLE CHLORHEXIDINE COMPOSITIONS” (Teleflex Medical Incorporated, priority 2009, published 2010):

Tests used:
Format in all cases: physicochemical
[1] = HPLC of CHA extracted from co-extruded 7Fr single lumen tubing
Method: […] Co-extruded tubing was also analyzed for chlorhexidine degradants.
(§1) Chlorhexidine diacetate content of the prepared samples was extracted with 1:1 tetrahydrofuran (THF): H2O and analyzed on the Agilent Eclipse XDB-CN 5u 4.6×150 mm column with guard column. Briefly, 2 centimeter (cm) sample segments were extracted with 5 mL of THF and 5 mL of H2O, vortexed, and centrifuged. HPLC analysis was run on an Agilent Eclipse XDB-CN 5u 4.6×150 mm column and 4.6×12.5 mm Eclipse XDB-CN guard column, with a mixture of deionized water, acetonitrile, and trifluoroacetic acid as the mobile phase. Concentrations of the analytes were determined via calibration curves.

[2] = HPLC of CHA extracted from Versaflex CL30 compounded resin; settings: for 4.1 peak (CHA) / RRT 0.6 (degradant) / RRT 1.3 (degradant) / RRT 1.6 (degradant): Versaflex CL30 compounded resin
Method: (§2) Versaflex® CL30 and chlorhexidine diacetate were separately fed into an 18 mm Leistritz twin screw intermeshing extruder from K-tron feeders at rates of 2.5 kg/hr and 0.25 kg/hr, respectively. The barrel zone temperatures were set from 131° C. thru 148° C. The extrudate was pelletized into small pellets.
as §1

[3] = HPLC of chlorhexidine diacetate extracted from Tecothane-2095A compounded resin (thermal degradation on melt processing); settings: for 4.1 peak (CHA) / RRT 0.6 (degradant) / RRT 1.3 (degradant) / RRT 1.6 (degradant): Tecothane-2095A compounded resin
Excerpt: Tecothane®-2095A was coated with 5% w/w polytetramethyleneoxide (PTMO) of molecular weight (MW)=1000 by mixing 45.1 gram (g) of PTMO with 900g Tecothane®-2095A. The PTMO coated resin and chlorhexidine diacetate were separately fed into an 18 millimeter (mm) Leistritz twin screw intermeshing extruder (Somerville, N.J.) from K-Tron feeders (Pitman, N.J.) at rates of 2.5 kilograms per hour (kg/hr) and 0.25 kg/hr, respectively. The extruder was set at 112 revolutions per minute (rpm) for screw speed and the barrel zone temperatures were set from 145° C. thru 178° C. The extrudate was pelletized into small pellets.
as §1
(§3) In addition to the experimental conditions described with reference to FIG. 2, chlorhexidine diacetate compounded in Tecothane 2095A was subjected to melt temperatures ranging from about 139° C. to about 172° C. and the concentration of the analytes was determined via a calibration curve as described in the following Table 1.

[4] = HPLC of chlorhexidine diacetate extracted from low melt temperature Tecoflex-93A compounded resin; settings: for 4.289 peak (CHA) / RRT 0.6 (degradant) / RRT 1.3 (degradant) / RRT 1.6 (degradant): low melt temperature (LMT) Tecoflex-93A
Method: Low melting temperature Tecoflex-93A and chlorhexidine diacetate were separately fed into al 8 mm Leistritz twin screw intermeshing extruder from K-tron feeders at rates of 1 kg/hr and 0.1 kg/hr, respectively. The barrel zone temperatures were set at 121° C. for all zones. The extrudate was pelletized into small pellets.
as §1
as §3, with “3,” for “2,”, “low melt temperature Tecoflex-93A” for “Tecothane 2095A”, “131°” for “139°”, “137°” for “172°”, “The” for “and the”, “2.” for “1.”

[5] = HPLC of CHA extracted from PVC compounded resin
Method: as §2, with “Separate samples of polyvinyl chloride (shore 65A and shore 85A respectively)” for “Versaflex® CL30”, “2.0” for “2.5”, “0.2” for “0.25”, “140°” for “131°”, “155°” for “148°”
as §1
as §3, with “7,” for “2,”, “polyvinyl chloride (Shore A hardness of […] & 85)” for “Tecothane 2095A”, “145°” for “139°”, “176°” for “172°”, “The” for “and the”, “6.” for “1.”

[6] = HPLC of chlorhexidine dodecanoate extracted from LMT Tecoflex-93A compounded resin; settings: for 4.289 peak (CHDD) / RRT 0.6 (degradant) / RRT 1.3 (degradant) / RRT 1.6 (degradant): LMT Tecoflex-93A compounded resin
[7] = co-extruded 7Fr single lumen, melt temp 135 °C (condition 1)
[8] = PVC 60A compounded resin, melt temp 145 °C (condition 1)
[9] = PVC 60A compounded resin, melt temp 154 °C (condition 2)
[10] = PVC 60A compounded resin, melt temp 159 °C (condition 3)
[11] = PVC 60A compounded resin, melt temp 165 °C (condition 4)
[12] = PVC 60A compounded resin, melt temp 171 °C (condition 5)
[13] = PVC 85A compounded resin, melt temp 155 °C (condition 1)
[14] = PVC 85A compounded resin, melt temp 159 °C (condition 2)
[15] = PVC 85A compounded resin, melt temp 163 °C (condition 3)
[16] = PVC 85A compounded resin, melt temp 167 °C (condition 4)
[17] = PVC 85A compounded resin, melt temp 170 °C (condition 5)
[18] = PVC 85A compounded resin, melt temp 176 °C (condition 6)

CC(=O)O.CC(=O)O.NC(=N\CCCCCC/N=C(N)/N=C(\N)Nc1ccc(Cl)cc1)/N=C(\N)Nc1ccc(Cl)cc1 [CHA, chlorhexidine diacetate]
99.6%: % Peak area CHA [5, 12] | % Peak area CHA [5, 16]
3%: RRT 0.6 (degradant) ([3]; melt temp 139 °C (condition 1)) | RRT 0.6 (degradant) ([3]; melt temp 142 °C (condition 2)) | RRT 1.6 (degradant) ([3]; melt temp 172 °C (condition 4))
about 137 °C: stable processing temperature limit ([4]; with polyurethanes)
77%: 4.1 peak (CHA) ([3]; melt temp 172 °C (condition 4))
degrades into several products: thermal degradation on melt processing (HPLC, FIG. 2) ([3]; compounded in Tecothane 2095A, melt temperature 164 °C, 280 nm)
7%: RRT 0.6 (degradant) ([3]; melt temp 172 °C (condition 4))
99.7%: % Peak area CHA [5, 17]
4%: RRT 0.6 (degradant) ([3]; melt temp 144 °C (condition 3))
less than 1%: amount of degradant generated (HPLC, FIG. 7) ([5]; compounded in polyvinyl chloride (Shore A hardness of 85), processed at 176 °C, 280 nm)
99.3%: % Peak area CHA [5, 18]
13%: RRT 1.3 (degradant) ([3]; melt temp 172 °C (condition 4))
1%: RRT 1.6 (degradant) ([3]; melt temp 139 °C (condition 1)) | RRT 1.6 (degradant) ([3]; melt temp 142 °C (condition 2)) | RRT 1.6 (degradant) ([3]; melt temp 144 °C (condition 3))
did not degrade: thermal degradation on melt processing (HPLC, FIG. 3) ([4]; compounded in low melt temperature Tecoflex-93A, melt temperature 136 °C, 280 nm) | thermal degradation on melt processing (HPLC, FIG. 5) ([5]; compounded in polyvinyl chloride (Shore A hardness of 65), melt temperature 145 °C, 280 nm) | thermal degradation on melt processing (HPLC, FIG. 6) ([5]; compounded in polyvinyl chloride (Shore A hardness of 85), melt temperature 155 °C, 280 nm)
88%: 4.1 peak (CHA) ([3]; melt temp 142 °C (condition 2))
84%: 4.1 peak (CHA) ([3]; melt temp 144 °C (condition 3))
8%: RRT 1.3 (degradant) ([3]; melt temp 139 °C (condition 1)) | RRT 1.3 (degradant) ([3]; melt temp 142 °C (condition 2))
89%: 4.1 peak (CHA) ([3]; melt temp 139 °C (condition 1))
100%: % Peak area CHA [5, 8] | % Peak area CHA [5, 9] | % Peak area CHA [5, 10] | % Peak area CHA [5, 11] | % Peak area CHA [5, 13] | % Peak area CHA [5, 14] | % Peak area CHA [5, 15]
Non-detected: RRT 0.6 (degradant) ([4]; melt temp 137 °C (condition 2))
0.4%: % Peak area (degradant) [5, 12] | % Peak area (degradant) [5, 16]
100: 4.289 peak (CHA) [1, 7] | 4.1 peak (CHA) ([2]; melt temp 101 °C (condition 1)) | 4.1 peak (CHA) ([2]; melt temp 121 °C (condition 2)) | 4.1 peak (CHA) ([2]; melt temp 129 °C (condition 3)) | 4.1 peak (CHA) ([2]; melt temp 139 °C (condition 4)) | 4.1 peak (CHA) ([2]; melt temp 144 °C (condition 5)) | 4.1 peak (CHA) ([2]; melt temp 149 °C (condition 6)) | 4.1 peak (CHA) ([2]; melt temp 153 °C (condition 7)) | 4.1 peak (CHA) ([2]; melt temp 161 °C (condition 8)) | 4.289 peak (CHA) ([4]; melt temp 131 °C (condition 1)) | 4.289 peak (CHA) ([4]; melt temp 137 °C (condition 2))
0.3%: % Peak area (degradant) [5, 17]
at least 135 °C: stable processing temperature limit ([1]; with polyurethanes, from Table 4 (co-extruded 7Fr single lumen))
11%: RRT 1.3 (degradant) ([3]; melt temp 144 °C (condition 3))
Not detected: RRT 0.6 (degradant) [1, 7] | RRT 1.3 (degradant) [1, 7] | RRT 1.6 (degradant) [1, 7] | RRT 0.6 (degradant) ([2]; melt temp 101 °C (condition 1)) | RRT 1.3 (degradant) ([2]; melt temp 101 °C (condition 1)) | RRT 1.6 (degradant) ([2]; melt temp 101 °C (condition 1)) | RRT 0.6 (degradant) ([2]; melt temp 121 °C (condition 2)) | RRT 1.3 (degradant) ([2]; melt temp 121 °C (condition 2)) | RRT 1.6 (degradant) ([2]; melt temp 121 °C (condition 2)) | RRT 0.6 (degradant) ([2]; melt temp 129 °C (condition 3)) | RRT 1.3 (degradant) ([2]; melt temp 129 °C (condition 3)) | RRT 1.6 (degradant) ([2]; melt temp 129 °C (condition 3)) | RRT 0.6 (degradant) ([2]; melt temp 139 °C (condition 4)) | RRT 1.3 (degradant) ([2]; melt temp 139 °C (condition 4)) | RRT 1.6 (degradant) ([2]; melt temp 139 °C (condition 4)) | RRT 0.6 (degradant) ([2]; melt temp 144 °C (condition 5)) | RRT 1.3 (degradant) ([2]; melt temp 144 °C (condition 5)) | RRT 1.6 (degradant) ([2]; melt temp 144 °C (condition 5)) | RRT 0.6 (degradant) ([2]; melt temp 149 °C (condition 6)) | RRT 1.3 (degradant) ([2]; melt temp 149 °C (condition 6)) | RRT 1.6 (degradant) ([2]; melt temp 149 °C (condition 6)) | RRT 0.6 (degradant) ([2]; melt temp 153 °C (condition 7)) | RRT 1.3 (degradant) ([2]; melt temp 153 °C (condition 7)) | RRT 1.6 (degradant) ([2]; melt temp 153 °C (condition 7)) | RRT 0.6 (degradant) ([2]; melt temp 161 °C (condition 8)) | RRT 1.3 (degradant) ([2]; melt temp 161 °C (condition 8)) | RRT 1.6 (degradant) ([2]; melt temp 161 °C (condition 8)) | RRT 0.6 (degradant) ([4]; melt temp 131 °C (condition 1)) | RRT 1.3 (degradant) ([4]; melt temp 131 °C (condition 1)) | RRT 1.6 (degradant) ([4]; melt temp 131 °C (condition 1)) | RRT 1.3 (degradant) ([4]; melt temp 137 °C (condition 2)) | RRT 1.6 (degradant) ([4]; melt temp 137 °C (condition 2)) | % Peak area (degradant) [5, 8] | % Peak area (degradant) [5, 9] | % Peak area (degradant) [5, 10] | % Peak area (degradant) [5, 11] | % Peak area (degradant) [5, 13] | % Peak area (degradant) [5, 14] | % Peak area (degradant) [5, 15]
0.7%: % Peak area (degradant) [5, 18]

CCCCCCCCCCCC(=O)O.NC(=NCCCCCCN=C(N)N=C(N)Nc1ccc(Cl)cc1)N=C(N)Nc1ccc(Cl)cc1 [CHDD, chlorhexidine dodecanoate]
100: 4.289 peak (CHDD) ([6]; melt temp 132 °C (condition 1)) | 4.289 peak (CHDD) ([6]; melt temp 136 °C (condition 2))
Not detected: RRT 1.3 (degradant) ([6]; melt temp 132 °C (condition 1)) | RRT 1.6 (degradant) ([6]; melt temp 132 °C (condition 1)) | RRT 1.3 (degradant) ([6]; melt temp 136 °C (condition 2)) | RRT 1.6 (degradant) ([6]; melt temp 136 °C (condition 2))
at least 136 °C: stable processing temperature limit ([6]; with polyurethanes)
Non-detected: RRT 0.6 (degradant) ([6]; melt temp 132 °C (condition 1)) | RRT 0.6 (degradant) ([6]; melt temp 136 °C (condition 2))
did not degrade: thermal degradation on melt processing (HPLC, FIG. 4) ([6]; compounded in low melt temperature Tecoflex-93A, melt temperature 137 °C, 280 nm)

[H]/N=C(\N/C(=N/[H])NCCCCCCNC(=N)NC(=N)Nc1ccc(Cl)cc1)Nc1ccc(Cl)cc1 [chlorhexidine]
up to 161 °C: processing temperature at which thermally stable ([2]; with polyolefin thermoplastic elastomers (Versaflex CL30))
≤ 165 °C: processing temperature at which thermally stable ([5]; with vinyl polymers (PVC 60A & 85A))
